Biological target: PI3K delta (Homo sapiens, UniProt O00329)
Assay: Luciferase-coupled chemiluminescence kinase assay (ATP consumption, KinaseGlo)
Format: biochemical
Outline: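 ATP consumption measured by KinaseGlo luciferase chemiluminescence after a 2 h reaction at ambient temperature, with ATP at or below the kinase KM. Ten inhibitor concentrations per curve; IC50 from four-parameter nonlinear regression.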

Sequence of PI3K delta (O00329 whole entry): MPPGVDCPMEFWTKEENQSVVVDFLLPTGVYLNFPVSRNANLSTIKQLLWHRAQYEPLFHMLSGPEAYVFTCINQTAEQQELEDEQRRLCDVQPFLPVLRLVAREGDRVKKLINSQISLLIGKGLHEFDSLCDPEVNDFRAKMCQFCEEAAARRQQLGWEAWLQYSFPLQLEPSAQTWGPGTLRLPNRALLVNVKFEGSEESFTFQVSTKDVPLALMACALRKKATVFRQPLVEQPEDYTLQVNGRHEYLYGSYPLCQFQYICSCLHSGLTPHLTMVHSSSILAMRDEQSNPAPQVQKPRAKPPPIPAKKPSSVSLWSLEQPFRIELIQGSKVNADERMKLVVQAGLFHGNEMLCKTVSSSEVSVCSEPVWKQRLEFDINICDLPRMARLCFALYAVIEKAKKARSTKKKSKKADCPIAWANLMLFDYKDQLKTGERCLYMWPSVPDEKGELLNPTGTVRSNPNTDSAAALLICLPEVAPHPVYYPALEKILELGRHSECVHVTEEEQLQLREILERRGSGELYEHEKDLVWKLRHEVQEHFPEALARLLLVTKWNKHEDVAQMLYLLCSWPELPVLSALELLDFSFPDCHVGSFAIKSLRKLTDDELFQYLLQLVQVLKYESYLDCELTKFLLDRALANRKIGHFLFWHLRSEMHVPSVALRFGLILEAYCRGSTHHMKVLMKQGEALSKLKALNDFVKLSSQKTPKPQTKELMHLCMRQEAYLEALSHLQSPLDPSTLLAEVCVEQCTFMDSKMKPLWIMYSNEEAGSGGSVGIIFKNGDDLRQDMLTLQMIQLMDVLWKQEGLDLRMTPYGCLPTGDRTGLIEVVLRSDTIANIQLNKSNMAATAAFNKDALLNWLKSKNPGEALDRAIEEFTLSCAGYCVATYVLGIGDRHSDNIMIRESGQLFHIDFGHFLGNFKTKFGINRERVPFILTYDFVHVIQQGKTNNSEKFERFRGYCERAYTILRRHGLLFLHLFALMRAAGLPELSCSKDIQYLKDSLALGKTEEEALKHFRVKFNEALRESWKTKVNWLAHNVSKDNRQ
Sequence of PI3K delta (P27986 whole entry partner): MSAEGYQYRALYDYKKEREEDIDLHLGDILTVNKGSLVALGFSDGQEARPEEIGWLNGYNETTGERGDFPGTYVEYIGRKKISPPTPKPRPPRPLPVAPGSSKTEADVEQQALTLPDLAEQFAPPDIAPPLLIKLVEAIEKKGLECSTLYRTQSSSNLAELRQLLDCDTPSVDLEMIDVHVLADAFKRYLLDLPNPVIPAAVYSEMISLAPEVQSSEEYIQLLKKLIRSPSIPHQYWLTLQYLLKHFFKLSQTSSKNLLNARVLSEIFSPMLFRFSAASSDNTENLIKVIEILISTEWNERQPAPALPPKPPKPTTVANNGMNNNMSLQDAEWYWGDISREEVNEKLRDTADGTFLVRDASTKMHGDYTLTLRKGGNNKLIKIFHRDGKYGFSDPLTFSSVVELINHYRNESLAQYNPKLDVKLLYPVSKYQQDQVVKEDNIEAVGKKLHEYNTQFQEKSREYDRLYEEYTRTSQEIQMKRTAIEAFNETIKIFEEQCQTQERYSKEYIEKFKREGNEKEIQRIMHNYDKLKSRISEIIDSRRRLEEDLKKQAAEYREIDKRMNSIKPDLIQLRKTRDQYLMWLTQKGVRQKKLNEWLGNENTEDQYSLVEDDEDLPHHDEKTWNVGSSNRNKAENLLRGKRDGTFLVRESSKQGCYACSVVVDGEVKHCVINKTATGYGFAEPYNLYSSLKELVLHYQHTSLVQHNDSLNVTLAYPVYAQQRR

SMILES	IC50 [nM]
CCCn1cc(-c2nc3c(N4CCC5(CC4)C(=O)Nc4ccccc45)ncnc3n2CC)cn1 [Compound 251, 1′-[9-ethyl-8-(1-propyl-1H-pyrazol-4-yl)-9H-purin-6-yl]spiro[indole-3,4′-piperidin]-2(1H)-one]	< 50
Cn1c(C(=O)NCC2CC2)nc2c(N3CCC(n4c(C(F)(F)F)nc5ccccc54)CC3)ncnc21 [Compound 101, N-(cyclopropylmethyl)-9-methyl-6-{4-[2-(trifluoromethyl)-1H-benzimidazol-1-yl]piperidin-1-yl}-9H-purine-8-carboxamide]	250 to 500
Cn1c(C(=O)NCC2CC2)nc2c(N3CC(n4c(=O)[nH]c5cc(C(F)(F)F)ccc54)C3)ncnc21 [Compound 145, N-(cyclopropylmethyl)-9-methyl-6-{3-[2-oxo-5-(trifluoromethyl)-2,3-dihydro-1H-benzimidazol-1-yl]azetidin-1-yl}-9H-purine-8-carboxamide]	250 to 500
Cn1c(-c2ccc(O)nc2)nc2c(N3CCC(n4c(=O)[nH]c5ccccc54)CC3)ncnc21 [Compound 300, 1-{1-[8-(6-hydroxypyridin-3-yl)-9-methyl-9H-purin-6-yl]piperidin-4-yl}-1,3-dihydro-2H-benzimidazol-2-one]	500 to 1500
Cn1c(C(=O)OCC2CC2)nc2c(N3CCC(n4c(=O)[nH]c5ccccc54)CC3)ncnc21 [Compound 79, Cyclopropylmethyl 9-methyl-6-[4-(2-oxo-2,3-dihydro-1H-benzimidazol-1-yl)piperidin-1-yl]-9H-purine-8-carboxylate]	50 to 250
Cn1c(-c2cccnn2)nc2c(N3CCC(n4c(=O)[nH]c5ccccc54)CC3)ncnc21 [Compound 297, 1-[1-(9-methyl-8-pyridazin-3-yl-9H-purin-6-yl)piperidin-4-yl]-1,3-dihydro-2H-benzimidazol-2-one]	50 to 250
CC(C)c1nnc(-c2nc3c(N4CCC5(CC4)C(=O)Nc4ccccc45)ncnc3n2C)o1 [Compound 174, 1′-{9-methyl-8-[5-(1-methylethyl)-1,3,4-oxadiazol-2-yl]-9H-purin-6-yl}spiro[indole-3,4′-piperidin]-2(1H)-one]	< 50
Cn1c(C(=O)NCC2CC2)nc2c(N3CCC4(CC3)C(=O)NCC4c3ccccc3)ncnc21 (stereo not drawn) [Compound 99, N-(cyclopropylmethyl)-9-methyl-6-(1-oxo-4-phenyl-2,8-diazaspiro[4.5]dec-8-yl)-9H-purine-8-carboxamide]	500 to 1500
Cn1cncc1-c1nc2c(N3CCC(n4c(=O)[nH]c5ccccc54)CC3)ncnc2n1C [Compound 288, 1-{1-[9-methyl-8-(1-methyl-1H-imidazol-5-yl)-9H-purin-6-yl]piperidin-4-yl}-1,3-dihydro-2H-benzimidazol-2-one]	< 50
CC(C)n1cc(-c2nc3c(N4CCC(n5c(=O)[nH]c6ccccc65)CC4)ncnc3n2C)cn1 [Compound 152, 1-(1-{9-methyl-8-[1-(1-methylethyl)-1H-pyrazol-4-yl]-9H-purin-6-yl}piperidin-4-yl)-1,3-dihydro-2H-benzimidazol-2-one]	< 50
Cn1c(C(=O)NCCCCO)nc2c(N3CCC(n4c(=O)[nH]c5ccccc54)CC3)ncnc21 [Compound 42, N-(4-hydroxybutyl)-9-methyl-6-[4-(2-oxo-2,3-dihydro-1H-benzimidazol-1-yl)piperidin-1-yl]-9H-purine-8-carboxamide]	50 to 250
Cn1c(-c2ccnnc2)nc2c(N3CCC(n4c(=O)[nH]c5ccccc54)CC3)ncnc21 [Compound 280, 1-[1-(9-methyl-8-pyridazin-4-yl-9H-purin-6-yl)piperidin-4-yl]-1,3-dihydro-2H-benzimidazol-2-one]	50 to 250
Cn1c(-n2cnc3ccccc32)nc2c(N3CCC(n4c(=O)[nH]c5ccccc54)CC3)ncnc21 [Compound 259, 1-{1-[8-(1H-benzimidazol-1-yl)-9-methyl-9H-purin-6-yl]piperidin-4-yl}-1,3-dihydro-2H-benzimidazol-2-one]	< 50
Cn1c(C(=O)NCC2CC2)nc2c(N3CCC4(CC3)C(=O)Nc3c(Cl)cccc34)ncnc21 [Compound 211, 6-(7-chloro-2-oxo-1,2-dihydro-1′H-spiro[indole-3,4′-piperidin]-1′-yl)-N-(cyclopropylmethyl)-9-methyl-9H-purine-8-carboxamide]	< 50
CC(CNC(=O)c1nc2c(N3CCC4(CC3)C(=O)Nc3ccccc34)ncnc2n1C)c1ccccc1 (stereo not drawn) [Compound 31, 9-methyl-6-(2-oxo-1,2-dihydro-1′H-spiro[indole-3,4′-piperidin]-1′-yl)-N-(2-phenylpropyl)-9H-purine-8-carboxamide]	500 to 1500
Cn1c(C(=O)N[C@H]2CC[C@H](O)CC2)nc2c(N3CCC4(CC3)C(=O)Nc3ccccc34)ncnc21 [Compound 87, N-(trans-4-hydroxycyclohexyl)-9-methyl-6-(2-oxo-1,2-dihydro-1′H-spiro[indole-3,4′-piperidin]-1′-yl)-9H-purine-8-carboxamide]	< 50
Cn1c(C(=O)NC2CCC(F)(F)CC2)nc2c(N3CCC4(CC3)C(=O)Nc3ccccc34)ncnc21 [Compound 105, N-(4,4-difluorocyclohexyl)-9-methyl-6-(2-oxo-1,2-dihydro-1′H-spiro[indole-3,4′-piperidin]-1′-yl)-9H-purine-8-carboxamide]	50 to 250

SMILES	IC50 [nM]
Cn1c(C(=O)NCCc2ccc(Cl)cc2)nc2c(N3CCC(n4c(=O)[nH]c5ccccc54)CC3)ncnc21 [Compound 63, N-[2-(4-chlorophenyl)ethyl]-9-methyl-6-[4-(2-oxo-2,3-dihydro-1H-benzimidazol-1-yl)piperidin-1-yl]-9H-purine-8-carboxamide]	500 to 1500
CC(CNC(=O)c1nc2c(N3CCC(n4c(=O)[nH]c5ccccc54)CC3)ncnc2n1C)c1ccccc1 (stereo not drawn) [Compound 61, 9-methyl-6-[4-(2-oxo-2,3-dihydro-1H-benzimidazol-1-yl)piperidin-1-yl]-N-(2-phenylpropyl)-9H-purine-8-carboxamide]	250 to 500
CCn1c(C(=O)NC(C)C)nc2c(N3CCC4(CC3)C(=O)Nc3ccccc34)ncnc21 [Compound 223, 9-ethyl-N-(1-methylethyl)-6-(2-oxo-1,2-dihydro-1′H-spiro[indole-3,4′-piperidin]-1′-yl)-9H-purine-8-carboxamide]	< 50
Cn1c(-n2ccnc2)nc2c(N3CCC(n4c(=O)[nH]c5ccccc54)CC3)ncnc21 [Compound 124, 1-{1-[8-(1H-Imidazol-1-yl)-9-methyl-9H-purin-6-yl]piperidin-4-yl}-1,3-dihydro-2H-benzimidazol-2-one]	50 to 250
CCn1c(C(=O)NCC2CCOCC2)nc2c(N3CCC(n4c(=O)[nH]c5ccccc54)CC3)ncnc21 [Compound 156, 9-ethyl-6-[4-(2-oxo-2,3-dihydro-1H-benzimidazol-1-yl)piperidin-1-yl]-N-(tetrahydro-2H-pyran-4-ylmethyl)-9H-purine-8-carboxamide]	< 50
CCn1c(-c2cnc(OC)nc2)nc2c(N3CCC(n4c(=O)[nH]c5ccccc54)CC3)ncnc21 [Compound 306, 1-(1-{9-ethyl-8-[2-(methyloxy)pyrimidin-5-yl]-9H-purin-6-yl}piperidin-4-yl)-1,3-dihydro-2H-benzimidazol-2-one]	< 50
CCNC(=O)c1nc2c(N3CCC(n4c(=O)[nH]c5ccccc54)CC3)ncnc2n1C [Compound 62, N-ethyl-9-methyl-6-[4-(2-oxo-2,3-dihydro-1H-benzimidazol-1-yl)piperidin-1-yl]-9H-purine-8-carboxamide]	50 to 250
Cn1c(C(=O)NCC(C)(C)O)nc2c(N3CCC(n4c(=O)[nH]c5ccccc54)CC3)ncnc21 [Compound 273, N-(2-hydroxy-2-methylpropyl)-9-methyl-6-[4-(2-oxo-2,3-dihydro-1H-benzimidazol-1-yl)piperidin-1-yl]-9H-purine-8-carboxamide]	< 50
Cn1c(C(=O)NCC2CCCCC2)nc2c(N3CCC4(CC3)C(=O)Nc3ccccc34)ncnc21 [Compound 88, N-(cyclohexylmethyl)-9-methyl-6-(2-oxo-1,2-dihydro-1′H-spiro[indole-3,4′-piperidin]-1′-yl)-9H-purine-8-carboxamide]	500 to 1500
Cn1c(C(=O)NCC2CC2)nc2c(N3CC[C@H](c4ccccc4)[C@@H](O)C3)ncnc21 [Compound 235, N-(cyclopropylmethyl)-6-[(3R,4R)-3-hydroxy-4-phenylpiperidin-1-yl]-9-methyl-9H-purine-8-carboxamide]	500 to 1500
Cn1c(C(=O)NCC2CC2)nc2c(N3CCC(n4c(=O)[nH]c5ncccc54)CC3)ncnc21 [Compound 240, N-(cyclopropylmethyl)-9-methyl-6-[4-(2-oxo-2,3-dihydro-1H-imidazo[4,5-b]pyridin-1-yl)piperidin-1-yl]-9H-purine-8-carboxamide]	50 to 250
Cn1c(C(=O)NCC(F)(F)F)nc2c(N3CCC(n4c(=O)[nH]c5ccccc54)CC3)ncnc21 [Compound 60, 9-methyl-6-[4-(2-oxo-2,3-dihydro-1H-benzimidazol-1-yl)piperidin-1-yl]-N-(2,2,2-trifluoromethyl)-9H-purine-8-carboxamide]	< 50
Cn1c(-c2cccnn2)nc2c(N3CCC(n4c(=O)[nH]c5ncccc54)CC3)ncnc21 [Compound 335, 1-[1-(9-methyl-8-pyridazin-3-yl-9H-purin-6-yl)piperidin-4-yl]-1,3-dihydro-2H-imidazo[4,5-b]pyridin-2-one]	50 to 250
CCn1ncc(-c2nc3c(N4CCC(n5c(=O)[nH]c6ccccc65)CC4)ncnc3n2C)c1C [Compound 281, 1-{1-[8-(1-ethyl-5-methyl-1H-pyrazol-4-yl)-9-methyl-9H-purin-6-yl]piperidin-4-yl}-1,3-dihydro-2H-benzimidazol-2-one]	< 50
CCn1c(C(=O)N2CC[C@@H](F)C2)nc2c(N3CCC4(CC3)C(=O)Nc3ccccc34)ncnc21 [Compound 213]	< 50
CC(C)NC(=O)c1nc2c(N3CCC4(CC3)C(=O)Nc3ccccc34)ncnc2n1C [Compound 24, 9-methyl-N-(1-methylethyl)-6-(2-oxo-1,2-dihydro-1′H-spiro[indole-3,4′-piperidin]-1′-yl)-9H-purine-8-carboxamide]	50 to 250
